Source: BindingDB's records for doi:10.1073/pnas.90.2.408 (Synaptic Pharmaceutical, 1993)

The molecules below were run against T1, 5-hydroxytryptamine receptor 1F (Homo sapiens, UniProt P30939).
T1 sequence (P30939 whole entry): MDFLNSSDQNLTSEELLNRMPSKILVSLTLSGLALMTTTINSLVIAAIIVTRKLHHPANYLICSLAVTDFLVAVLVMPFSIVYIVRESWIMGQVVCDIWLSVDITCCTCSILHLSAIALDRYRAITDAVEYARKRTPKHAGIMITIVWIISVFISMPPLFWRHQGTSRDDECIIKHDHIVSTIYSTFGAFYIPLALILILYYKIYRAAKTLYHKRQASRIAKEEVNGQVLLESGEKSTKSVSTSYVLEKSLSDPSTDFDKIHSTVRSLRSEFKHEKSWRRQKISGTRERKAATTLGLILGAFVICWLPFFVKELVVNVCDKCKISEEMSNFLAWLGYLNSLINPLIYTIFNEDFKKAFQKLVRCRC
`CCCN(CCC)CCc1c[nH]c2ccc(C(N)=O)cc12` [NN-DIPROP-5-CT] showed a Ki of 1.61 µM. Work on `Cn1cc(CCN)c2cc(O)ccc21` [5-HT,omega-N-Me] yielded a Ki of 0.184 µM. `COc1cc(N)c(Cl)cc1C(=O)NC1CN2CCC1CC2` (configuration not stated) [ZACOPRIDE,R] was tested, and the Ki was > 10 µM. With `COc1ccc2[nH]cc(CCN(C)C)c2c1` [3-(2-DIMETHYLAMINOETHYL)-5-METHOXYINDOLE] the Ki was 0.037 µM. Work on `COc1ccc2[nH]cc(CCN)c2c1` [tryptamine, 5-Methoxy] yielded a Ki of 1.17 µM. With `CCCN(CCC)C1CCc2cccc(O)c2C1` (configuration not stated) the Ki was 1.77 µM. In the case of `O=C(c1ccc(F)cc1)C1CCN(CCn2c(=O)[nH]c3ccccc3c2=O)CC1` [3-(2-{4-[(4-fluorophenyl)carbonyl]piperidin-1-yl}ethyl)-1,2,3,4-tetrahydroquinazoline-2,4-dione], the Ki is reported as > 10 µM. Molecule `CSc1ccc2c(c1)C(N1CCN(C)CC1)Cc1ccccc1S2` (configuration not stated) [methanesulfonic acid;1-methyl-4-(3-methylsulfanyl-5,6-dihydrobenzo[b][1]benzothiepin-5-yl)piperazine] has a Ki of 0.652 µM. `O=C(CCCN1CCC2(CC1)C(=O)NCN2c1ccccc1)c1ccc(F)cc1` [8-[4-(4-fluorophenyl)-4-oxidanylidene-butyl]-1-phenyl-1,3,8-triazaspiro[4.5]decan-4-one] was tested, and the Ki was > 10 µM. `COc1cc(CC(C)N)c(OC)cc1I` (configuration not stated) [[125I]2,5-dimethoxy-4-iodoamphetamine] gave a Ki of 1.74 µM. For `CC(C)NCC(O)COc1cccc2[nH]ccc12` (configuration not stated) [LB-46], the Ki was > 10 µM. With `CN1C[C@@H](NS(=O)(=O)N(C)C)C[C@@H]2c3cccc4c3c(cn4C)C[C@H]21` [MESULERGINE] the Ki was > 10 µM.
